Some test systems named below: SK-MEL-5; SF-268; HCT-15; 786-0; CAKI-1; LOX IMVI; EKVX; UO-31; OVCAR-3; SF-295; HOP-62; A498; UACC-257; TK-10; NCI-H522; NCI-H23; OVCAR-4.
Experiment in all cases: growth of human tumour cells (NCI), 48 h

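Interpolation was linear, between the two tested concentrations surrounding the appropriate level; five concentrations were tested over 48 hours in 96-well plates. At the GI50, growth is halved.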 Activity calls are given as the source filed them. Cut-off read from the data, not from the text of the source: active = GI50 up to about 1.1 µM and inactive = higher.

In the case of `COc1ccc(-c2[nH]c3ccccc3c2CCNS(=O)(=O)c2ccc(C)cc2)cc1`, the GI50 with SK-MEL-5 is > 5.9 µM (inactive); in the assay on SF-268, > 10 µM (inactive); in the assay with HCT-15, 7.6 µM; in the assay with 786-0 it was > 10 µM (inactive); with CAKI-1, > 10 µM (inactive); in the assay on LOX IMVI, > 10 µM (inactive). Moreover, the GI50 in the assay on EKVX is > 7.93 µM (inactive); with UO-31 it was 4.92 µM (inactive); in the assay with OVCAR-3 it was 7.23 µM (inactive); in the assay on SF-295 it was > 8.41 µM (inactive); in the assay on HOP-62, > 10 µM (inactive); with A498, > 10 µM (inactive). Also, the GI50 in the assay on UACC-257 is > 8.34 µM (inactive); in the assay with TK-10 it was > 7.8 µM (inactive); in the assay on NCI-H522 it was 7.93 µM (inactive); in the assay with NCI-H23, > 10 µM (inactive).
Regarding `CCOC(=O)N1CCc2cc(OC)c(OC)c3c2C1CC3=O` (stereo not given), the GI50 in the assay with SK-MEL-5 is > 100 µM (inactive); in the assay on SF-268, > 100 µM (inactive); with HCT-15, > 100 µM; with 786-0, > 100 µM (inactive); in the assay on CAKI-1, > 100 µM (inactive); in the assay on LOX IMVI, > 100 µM (inactive). Also, the GI50 in the assay with OVCAR-4, in the assay on UO-31, in the assay on SF-295, in the assay on HOP-62, in the assay on A498 and in the assay on UACC-257 was > 100 µM (inactive) in each case. The GI50 with TK-10 and in the assay on NCI-H522 was > 100 µM (inactive) throughout.
On to `O=P(O)(OCC(O)O)OCC(O)O`, for which the GI50 in the assay with SK-MEL-5, in the assay with SF-268, in the assay on 786-0, in the assay with LOX IMVI, in the assay with EKVX and with UO-31 was > 100 µM (inactive) each time. For the same compound, the GI50 in the assay with OVCAR-3, in the assay with SF-295, in the assay on HOP-62, with A498, with UACC-257 and in the assay on TK-10 was > 100 µM (inactive) each time. For the same compound, the GI50 with NCI-H522 and in the assay on NCI-H23 was > 100 µM (inactive) throughout.
Turning to `CN(C)c1ccc(/C=C2\Cc3ccccc3C2=O)cc1Br`, the GI50 is 26.4 µM (inactive) in the assay on SK-MEL-5; 32.7 µM (inactive) with SF-268; 35.7 µM with HCT-15; 54.1 µM (inactive) in the assay with 786-0; 64.1 µM (inactive) with CAKI-1; 41.8 µM (inactive) in the assay with OVCAR-4. The GI50 with EKVX was 76.6 µM (inactive); in the assay on UO-31, 36.6 µM (inactive); with OVCAR-3, > 100 µM (inactive); in the assay with SF-295, > 100 µM (inactive); in the assay with HOP-62, > 100 µM (inactive); with A498, > 100 µM (inactive). For the same compound, the GI50 in the assay on UACC-257 is 44.8 µM (inactive); in the assay on TK-10, > 100 µM (inactive); in the assay with NCI-H522, 23.4 µM (inactive); in the assay on NCI-H23, 39.2 µM (inactive).
With `N#C/C(=C1\OC(=N)C(c2ccc(Cl)cc2)=C1O)c1ccc(Cl)cc1`, the GI50 with SF-268 was 36.6 µM (inactive); in the assay with 786-0, 16 µM (inactive); in the assay on CAKI-1, 17.3 µM (inactive); in the assay on LOX IMVI it was 16 µM (inactive); with OVCAR-4 it was 15.9 µM (inactive); in the assay with EKVX, 17.7 µM (inactive). Moreover, the GI50 with UO-31 was 16.2 µM (inactive); with OVCAR-3, 14.8 µM (inactive); in the assay with SF-295 it was 15.8 µM (inactive); in the assay with HOP-62, 19.1 µM (inactive); in the assay on A498, 17.2 µM (inactive); in the assay with UACC-257, 15 µM (inactive). Also, the GI50 is 26.4 µM (inactive) in the assay with TK-10, 12 µM (inactive) in the assay with NCI-H522 and 13.6 µM (inactive) in the assay on NCI-H23.

The values above are taken from ChEMBL document CHEMBL1201862, “PubChem BioAssay data set” (2004).
